Legend:
[1] = Solubility of the compound in saline; format: physicochemical; conditions: buffer
[2] = molecular target: T1, Orexin/Hypocretin receptor type 1 (Homo sapiens, UniProt O43613); assay: Antagonist activity at human OX1R expressed in CHOK1 cells assessed as inhibition of orexin A-induced intracellular calcium level preincubated for 15 mins followed by orexin A addition by Fura-2-AM dye based fluorescence assay
T1 sequence (O43613 whole entry): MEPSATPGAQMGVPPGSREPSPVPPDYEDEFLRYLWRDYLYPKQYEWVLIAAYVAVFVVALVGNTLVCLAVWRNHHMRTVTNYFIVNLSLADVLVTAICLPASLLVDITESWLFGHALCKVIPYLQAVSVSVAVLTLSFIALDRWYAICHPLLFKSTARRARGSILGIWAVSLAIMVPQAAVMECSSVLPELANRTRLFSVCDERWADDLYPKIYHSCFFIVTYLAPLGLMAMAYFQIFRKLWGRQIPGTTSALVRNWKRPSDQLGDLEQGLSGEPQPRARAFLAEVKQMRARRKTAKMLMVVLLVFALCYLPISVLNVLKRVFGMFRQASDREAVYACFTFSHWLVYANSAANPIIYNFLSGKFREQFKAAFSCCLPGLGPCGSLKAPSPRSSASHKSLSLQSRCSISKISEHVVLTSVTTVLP

[3] = Selectivity index, ratio of IC50 for human OX2R expressed in CHOK1 cells to IC50 for human OX1R expressed in CHOK1 cells
[4] = Solubility of the compound in water; format: physicochemical; conditions: buffer

SMILES | solubility [1] | Ki [2] [nM] | Ratio IC50 [3] | solubility [4]
COc1ccc2c3c1O[C@H]1[C@H](N(C)C(=O)/C=C/c4ccoc4)CC[C@@]4(O)[C@@H](C2)N(S(=O)(=O)c2ccc(Br)cc2)CC[C@]314 | Insoluble | 6.21 | <88.4 | Insoluble
COc1cccc(S(=O)(=O)N2CC[C@]34c5c6ccc(OC)c5O[C@H]3[C@H](N(C)C(=O)/C=C/c3ccoc3)CC[C@@]4(O)[C@H]2C6)c1 | Insoluble | 2.44 | <88.4 | Insoluble
COc1ccc2c3c1O[C@H]1[C@H](N(C)C(=O)/C=C/c4ccoc4)CC[C@@]4(O)[C@@H](C2)N(S(=O)(=O)c2cccc([N+](=O)[O-])c2)CC[C@]314 | Insoluble | 5.05 | <88.4 | Insoluble
COc1ccc2c3c1O[C@H]1[C@H](N(C)C(=O)/C=C/c4ccoc4)CC[C@@]4(O)[C@@H](C2)N(S(=O)(=O)c2cccc(Br)c2)CC[C@]314 | Insoluble | 2.27 | <88.4 | Insoluble
COc1ccc2c3c1O[C@H]1[C@H](N(C)C(=O)/C=C/c4ccoc4)CC[C@@]4(O)[C@@H](C2)N(S(=O)(=O)c2ccccc2C#N)CC[C@]314 | Insoluble | 1.96 | <88.4 | Insoluble
COc1ccc2c3c1O[C@H]1[C@H](N(C)C(=O)/C=C/c4ccoc4)CC[C@@]4(O)[C@@H](C2)N(S(=O)(=O)c2ccc(C#N)cc2)CC[C@]314 | Insoluble | 13.9 | <88.4 | Insoluble
COc1ccc2c3c1O[C@H]1[C@H](N(C)C(=O)/C=C/c4ccoc4)CC[C@@]4(O)[C@@H](C2)N(S(=O)(=O)c2cccc(N(C)C)c2)CC[C@]314.Cl | Insoluble | 7.25 | <88.4 | Insoluble
CN(C(=O)/C=C/c1ccccc1)[C@@H]1CC[C@@]2(O)[C@H]3Cc4ccc(O)c5c4[C@@]2(CCN3CC2CC2)[C@H]1O5.Cl | Insoluble | 389 | <88.4 | Insoluble
COc1ccc2c3c1O[C@H]1[C@H](N(C)C(=O)/C=C/c4ccoc4)CC[C@@]4(O)[C@@H](C2)N(C(C)=O)CC[C@]314 | Insoluble | 541 | <88.4 | Insoluble
CN(Cc1ccccc1)[C@@H]1CC[C@@]2(O)[C@H]3Cc4ccc(O)c5c4[C@@]2(CCN3CC2CC2)[C@H]1O5.Cl | Insoluble | – | <88.4 | Insoluble
COc1ccc2c3c1O[C@H]1[C@H](N(C)C(=O)/C=C/c4ccoc4)CC[C@@]4(O)[C@@H](C2)N(S(=O)(=O)c2ccc(Cl)cc2)CC[C@]314 | Insoluble | 5.13 | <88.4 | Insoluble
COc1ccc2c3c1O[C@H]1[C@H](N(C)C(=O)/C=C/c4ccoc4)CC[C@@]4(O)[C@@H](C2)N(S(=O)(=O)c2ccc(C)cc2)CC[C@]314 | Insoluble | 5.85 | <88.4 | Insoluble
COc1ccc(S(=O)(=O)N2CC[C@]34c5c6ccc(OC)c5O[C@H]3[C@H](N(C)C(=O)/C=C/c3ccoc3)CC[C@@]4(O)[C@H]2C6)cc1 | Insoluble | 8.99 | <88.4 | Insoluble
COc1ccc2c3c1O[C@H]1[C@H](N(C)C(=O)/C=C/c4ccoc4)CC[C@@]4(O)[C@@H](C2)N(S(=O)(=O)c2ccc(F)cc2)CC[C@]314 | Insoluble | 4.05 | <88.4 | Insoluble
COc1ccc2c3c1O[C@H]1[C@H](N(C)C(=O)/C=C/c4ccoc4)CC[C@@]4(O)[C@@H](C2)N(S(=O)(=O)c2ccccc2Cl)CC[C@]314 | Insoluble | 1.93 | <88.4 | Insoluble
COc1ccc2c3c1O[C@H]1[C@H](N(C)C(=O)/C=C/c4ccoc4)CC[C@@]4(O)[C@@H](C2)N(S(=O)(=O)c2ccccc2C(F)(F)F)CC[C@]314 | Insoluble | 2.05 | <88.4 | Insoluble
CN(C)c1ccc(S(=O)(=O)N2CC[C@]34c5c6ccc(O)c5O[C@H]3[C@H](N(C)C(=O)/C=C/c3ccoc3)CC[C@@]4(O)[C@H]2C6)cc1 | – | 320 | – | –
COc1ccc2c3c1O[C@H]1[C@H](N(C)C(=O)/C=C/c4ccoc4)CC[C@@]4(O)[C@@H](C2)N(S(=O)(=O)c2ccccc2C)CC[C@]314 | Insoluble | 1.7 | <88.4 | Insoluble
COc1ccc2c3c1O[C@H]1[C@H](N(C)C(=O)/C=C/c4ccoc4)CC[C@@]4(O)[C@@H](C2)N(S(=O)(=O)c2cccc(C#N)c2)CC[C@]314 | Insoluble | 7.3 | <88.4 | Insoluble
COc1ccc2c3c1O[C@H]1[C@H](N(C)C(=O)/C=C/c4ccoc4)CC[C@@]4(O)[C@@H](C2)N(S(=O)(=O)c2ccccc2N(C)C)CC[C@]314.Cl | Insoluble | 1.92 | <88.4 | Insoluble
COc1ccc2c3c1O[C@H]1[C@H](N(C)C(=O)/C=C/c4ccoc4)CC[C@@]4(O)[C@@H](C2)N(S(=O)(=O)c2ccc(C(F)(F)F)cc2)CC[C@]314 | Insoluble | 12.6 | <88.4 | Insoluble
CCCCS(=O)(=O)N1CC[C@]23c4c5ccc(OC)c4O[C@H]2[C@H](N(C)C(=O)/C=C/c2ccoc2)CC[C@@]3(O)[C@H]1C5 | Insoluble | 5.94 | <88.4 | Insoluble
COc1ccc2c3c1O[C@H]1[C@H](N(C)C(=O)/C=C/c4ccoc4)CC[C@@]4(O)[C@@H](C2)N(S(=O)(=O)c2c(C)cc(C)cc2C)CC[C@]314 | Insoluble | 4.16 | <88.4 | Insoluble
COc1ccc2c3c1O[C@H]1[C@H](N(C)C(=O)/C=C/c4ccoc4)CC[C@@]4(O)[C@@H](C2)N(S(=O)(=O)c2cccc(F)c2)CC[C@]314 | Insoluble | 7.6 | <88.4 | Insoluble
COc1ccc2c3c1O[C@H]1[C@H](N(C)C(=O)/C=C/c4cccnc4)CC[C@@]4(O)[C@@H](C2)N(S(=O)(=O)c2ccccc2N(C)C)CC[C@]314 | – | 42.3 | – | –
COc1ccc2c3c1O[C@H]1[C@H](N(C)C(=O)/C=C/c4ccoc4)CC[C@@]4(O)[C@@H](C2)N(S(=O)(=O)c2cccc(C(F)(F)F)c2)CC[C@]314 | Insoluble | 6.19 | <88.4 | Insoluble
COc1ccc2c3c1O[C@H]1[C@H](N(C)C(=O)/C=C/c4ccccn4)CC[C@@]4(O)[C@@H](C2)N(S(=O)(=O)c2ccccc2N(C)C)CC[C@]314 | – | 1.36 | – | –

Source: ChEMBL document CHEMBL3992519 (J Med Chem, 2017)
